# How the values were obtained:
# Amp-C [1] = biological target: T1, Amp-C (Escherichia coli, UniProt P00811); test: Fluorescence quenching; type: binding; conditions: 298 K
# T1 construct: made in house; host or cells: E. coli (DH5 and BL21(DE3) named; pET-28a)
# Experimental: (§1) Fluorescence quenching can be either dynamic or static in nature. The fluorescence intensity was calculated to understand the mechanism of protein quenching from all three classes of β-lactamase with D63, D2148, and D2573. The KSV (Stern–Volmer quenching constant; [Q] is the concentration of inhibitor) of all protein-inhibitor complexes was calculated from the slope of plot Fo/F (fluorescence intensities in the absence and presence of quencher) versus [Q], whereas number of binding sites (n) and Kb values for all combinations of proteins and inhibitors were determined by the slope and intercept of plot log (Fo/F – 1) versus log[Q] (Table 9). In this study, the KSV values were obtained, on the order of 10^2 to 10^5, for all enzyme-inhibitor complexes.
# (§2) A Shimadzu RF-5301PC spectrofluorometer (Shimadzu Corporation, Kyoto, Japan) was used to measure the fluorescence spectra. Quenching was observed by measuring intrinsic fluorescence at 295 nm between 300 and 400 nm. The emission and excitation slits were both adjusted to 5 nm. Then, 2 μM each D2573, D2148, and D63 were added to a 3-mL sample containing 2 μM protein ([…]). All the fluorescence intensities were corrected for the inner filter effect. The determination of the number of binding sites (n) and binding constant (Kb) at 298 K temperature for all the protein-inhibitor combinations from the Stern-Volmer equation and modified Stern-Volmer equation (equations 4 and 5). (4) (F0)/F = 1 + Ksv[Q] (5) Log (F0 − F)/F= logKb + n log[Q]
# (§3) Fo and F are the fluorescence intensities in the absence and presence of quencher (D63, D2148, D2573).
# NIH 3T3 cells = test: MTT cytotoxicity assay; type: cell-based; conditions: 24 h; for cellular viability: 50 μg/mL; for cytotoxicity (result in words): up to 50 μg/mL
# Experimental: (§4) Cytotoxicity of lead molecules D2573, D2148, and D63 on NIH 3T3 cells was evaluated by MTT assay. The relative cellular viability of NIH 3T3 cells in the presence of each sample D2573, D2148, and D63 at different concentrations (12.5 μg/mL, 25 μg/mL, and 50 μg/mL) is shown in Fig. 6.
# (§5) A cytotoxicity experiment was performed on NIH 3T3 cells. The NIH 3T3 cells were grown at 37°C in Dulbecco’s modified Eagle’s medium (DMEM) supplemented with 10% fetal bovine serum (FBS) and 1% antibiotic, penicillin-streptomycin (pen-strep), in a humidified incubator with 5% CO2. Sterile conditions were maintained at all times. Cells (~10^5 cells/well) were seeded in 96-well plates and allowed to adhere overnight. The cells were subsequently given different quantities of the lead compounds D2573, D2148, and D63 (12.5 μg/mL, 25 μg/mL, and 50 μg/mL, respectively). A conventional 3-(4,5-dimethylthiazol-2-yl)-2,5-diphenyl tetrazolium bromide (MTT) test was used to measure cell survival after 24 h. The supernatants were removed, and each well was filled with 90 μL of new medium and 10 μL of MTT (1 mg/mL) solution, which was then incubated for 4 h at 37°C. The formazan crystals generated during the reduction of MTT were dissolved in 150 μL of dimethyl sulfoxide (DMSO), and the absorbance was measured by measuring the optical density using a spectrophotometer at a wavelength of 570 nm.
# MTT cytotoxicity assay = type: cell-based; conditions: mouse, NIH 3T3 cells, 50 μg/mL, read-out: cellular viability
# Experimental: as §4, §5
# Amp-C [2] = biological target: T1, Amp-C; test: Steady-state kinetics of antibiotic hydrolysis with inhibitor; type: biochemical; conditions: inhibitor concentration as per IC50
# Experimental: (§6) The enzyme kinetics parameters (Km, and kcat) for all six proteins/enzymes in combination with different antibiotics (cefotaxime, imipenem, and meropenem), were calculated. The concentration of inhibitors, D63, D2148, and D2573, was as per the IC50 value (Fig. 5); the kinetic parameters are listed in Table 8.
# (§7) The steady-state kinetics of all six proteins were determined using the antibiotics:imipenem (Δε295 = −11,500 M^−1 cm^−1), meropenem (Δε297 = −10,940 M^−1 cm^−1), and cefotaxime (Δε264 = −27,250 M^−1 cm^−1). In this study, the D63, D2148, and D2573 inhibitors were tested. Hydrolysis of β-lactam antibiotics was detected by monitoring the variation in absorbance due to cleavage of the β-lactam ring in 50 mM, pH 7.0, phosphate buffer ([40], [41]). For hydrolysis of substrate (cefotaxime, imipenem, and meropenem) kinetics parameters, Km and kcat were calculated by using Michaelis Menten equations (equations 2 and 3). (2) V =Vmax [S]/Km + [S] (3) kcat = Vmax/E where E and S are the enzyme and substrate concentration, Km is the Michaelis-Mentent constant, kcat is the turnover number, and V and Vmax are the initial and maximum velocity of the hydrolysis, respectively.
# CTX-M-15 [3] = biological target: T2, CTX-M-15 (Escherichia coli, UniProt Q9EXV5); test: as above; type: biochemical; conditions: inhibitor concentration as per IC50
# T2 construct: made in house; host or cells: E. coli (DH5 and BL21(DE3) named)
# Experimental: as §6, §7
# NDM-1 = biological target: T3, NDM-1 (Klebsiella pneumoniae, UniProt C7C422); test: Fluorescence quenching; type: binding; conditions: 298 K
# T3 construct: made in house; host or cells: E. coli (DH5 and BL21(DE3) named)
# Experimental: as §1, with “9).” for “9). In this study, the KSV values were obtained, on the order of 10^2 to 10^5, for all enzyme-inhibitor complexes.”
# as §2, §3
# SHV-1 = biological target: T4, SHV-1 (Klebsiella pneumoniae, UniProt P0AD64); test: Fluorescence quenching; type: binding; conditions: 298 K
# T4 construct: made in house; host or cells: E. coli (DH5 and BL21(DE3) named; pET-28a)
# Experimental: as §1, with “9).” for “9). In this study, the KSV values were obtained, on the order of 10^2 to 10^5, for all enzyme-inhibitor complexes.”
# as §2, §3
# KPC-2 = biological target: T5, KPC-2 (Klebsiella pneumoniae, UniProt Q9F663); test: Fluorescence quenching; type: binding; conditions: 298 K
# T5 construct: made in house; host or cells: E. coli (DH5 and BL21(DE3) named; pET-28a)
# Experimental: as §1, with “9).” for “9). In this study, the KSV values were obtained, on the order of 10^2 to 10^5, for all enzyme-inhibitor complexes.”
# as §2, §3
# CTX-M-15 [4] = biological target: T2, CTX-M-15; test: Fluorescence quenching; type: binding; conditions: 298 K
# Experimental: as §1, with “9).” for “9). In this study, the KSV values were obtained, on the order of 10^2 to 10^5, for all enzyme-inhibitor complexes.”
# as §2, §3
# TEM-1 = biological target: T6, TEM-1 (Escherichia coli, UniProt P62593); test: Fluorescence quenching; type: binding; conditions: 298 K
# T6 construct: made in house; host or cells: E. coli (DH5 and BL21(DE3) named; pET-28a)
# Experimental: as §1, with “9).” for “9). In this study, the KSV values were obtained, on the order of 10^2 to 10^5, for all enzyme-inhibitor complexes.”
# as §2, §3
# T1 sequence (P00811 20-377): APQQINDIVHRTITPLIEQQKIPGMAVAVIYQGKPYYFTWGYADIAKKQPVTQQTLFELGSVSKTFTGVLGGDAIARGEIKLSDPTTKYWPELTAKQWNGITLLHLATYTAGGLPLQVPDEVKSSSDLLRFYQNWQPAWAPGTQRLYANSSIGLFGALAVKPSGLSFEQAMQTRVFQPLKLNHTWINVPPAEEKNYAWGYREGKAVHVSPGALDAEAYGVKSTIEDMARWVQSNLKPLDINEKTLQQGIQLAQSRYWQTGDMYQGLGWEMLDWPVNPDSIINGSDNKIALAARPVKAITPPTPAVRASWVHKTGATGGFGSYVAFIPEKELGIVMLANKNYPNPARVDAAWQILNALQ
# T6 sequence (P62593 24-286 limits assumed): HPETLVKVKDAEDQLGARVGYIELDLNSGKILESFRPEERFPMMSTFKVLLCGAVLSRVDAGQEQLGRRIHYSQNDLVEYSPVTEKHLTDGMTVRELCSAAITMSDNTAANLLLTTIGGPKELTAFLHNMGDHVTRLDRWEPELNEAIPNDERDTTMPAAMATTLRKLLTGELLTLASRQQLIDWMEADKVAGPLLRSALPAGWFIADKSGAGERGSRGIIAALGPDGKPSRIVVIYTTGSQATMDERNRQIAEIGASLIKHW
# T4 sequence (P0AD64 22-286): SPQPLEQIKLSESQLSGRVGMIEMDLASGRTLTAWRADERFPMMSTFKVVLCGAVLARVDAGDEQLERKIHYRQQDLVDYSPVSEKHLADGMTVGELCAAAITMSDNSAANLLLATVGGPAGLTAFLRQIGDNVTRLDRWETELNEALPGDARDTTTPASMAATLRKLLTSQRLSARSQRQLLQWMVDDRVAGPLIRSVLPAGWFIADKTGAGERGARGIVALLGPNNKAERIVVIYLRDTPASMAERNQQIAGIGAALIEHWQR
# T2 sequence (Q9EXV5 29-291, species assumed): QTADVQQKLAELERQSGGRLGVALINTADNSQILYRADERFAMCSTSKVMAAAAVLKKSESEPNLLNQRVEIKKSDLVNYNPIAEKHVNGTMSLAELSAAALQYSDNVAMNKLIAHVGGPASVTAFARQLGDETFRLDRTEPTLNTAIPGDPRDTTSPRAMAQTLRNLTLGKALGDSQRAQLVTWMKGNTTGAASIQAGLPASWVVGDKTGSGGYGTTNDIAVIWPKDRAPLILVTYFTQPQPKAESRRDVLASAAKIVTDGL
# T3 sequence (C7C422 29-270, looked up, species assumed): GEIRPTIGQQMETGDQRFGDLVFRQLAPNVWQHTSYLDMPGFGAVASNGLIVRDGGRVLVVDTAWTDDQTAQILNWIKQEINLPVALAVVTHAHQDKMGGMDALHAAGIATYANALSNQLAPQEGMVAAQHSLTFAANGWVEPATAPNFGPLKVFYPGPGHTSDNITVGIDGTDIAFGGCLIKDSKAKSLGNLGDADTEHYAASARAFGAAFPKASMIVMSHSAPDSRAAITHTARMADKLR
# T5 sequence (Q9F663 25-293, looked up, species assumed): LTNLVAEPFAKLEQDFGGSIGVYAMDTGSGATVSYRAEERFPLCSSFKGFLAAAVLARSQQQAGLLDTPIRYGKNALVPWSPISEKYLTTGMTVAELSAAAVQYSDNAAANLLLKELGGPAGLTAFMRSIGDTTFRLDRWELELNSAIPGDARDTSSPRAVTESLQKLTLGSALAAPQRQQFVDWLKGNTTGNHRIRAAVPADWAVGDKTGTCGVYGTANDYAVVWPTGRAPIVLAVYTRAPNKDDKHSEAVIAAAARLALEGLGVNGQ
Compound,n (number of binding sites) (Amp-C [1]),cellular viability (NIH 3T3 cells) [%],cytotoxicity (result in words) (NIH 3T3 cells),"viability at 24 h, 50 μg/mL (MTT cytotoxicity assay) [%]",Km or Ki (Amp-C [2]; cefotaxime),kcat (Amp-C [2]; cefotaxime) [S^−1],Km or Ki (Amp-C [2]; imipenem),kcat (Amp-C [2]; imipenem) [S^−1],Km or Ki (Amp-C [2]; meropenem) [μΜ],kcat (Amp-C [2]; meropenem) [S^−1],Km or Ki (CTX-M-15 [3]; cefotaxime) [μΜ],kcat (CTX-M-15 [3]; cefotaxime) [S^−1],kcat (CTX-M-15 [3]; imipenem),Km or Ki (CTX-M-15 [3]; meropenem),kcat (CTX-M-15 [3]; meropenem),n (number of binding sites) (NDM-1),n (number of binding sites) (SHV-1),n (number of binding sites) (KPC-2),n (number of binding sites) (CTX-M-15 [4]),n (number of binding sites) (TEM-1),also measured
"O=C(CN1C(=O)c2ccccc2S1(=O)=O)c1ccc(O)c(O)c1 [D63, 2-[2-(3,4-dihydroxyphenyl)-2-oxoethyl]-1H-1,2-benzisothiazole-1,1,3(2H)-trione]",0.8493,> 75,nontoxic,~78,"1,522 μΜ",1.537,499.22 μΜ,1.158,553.8,1.093,742.7,0.7320,5.572 S^−1,228.4 μΜ,1.723 S^−1,1.6673,0.4791,0.33,1.9313,0.4298,Km or Ki (CTX-M-15 [3]; imipenem): 480.5 μΜ
"O=C(c1ccccc1)C1CCN(C(=O)CN2C(=O)c3ccccc3C2=O)CC1 [D2148, 2-[2-(4-benzoylpiperidino) -2-oxoethyl]-1H-isoindole-1,3(2H)-dione]",1.2792,> 75,nontoxic,~78,796.6 μΜ,3.401,"1,136 μΜ",2.631,794,2.637,670.6,838.6,"2,720 S^−1","9,333 μΜ","17,974 S^−1",2.457,0.2952,1.148,1.163,0.2489,Km or Ki (CTX-M-15 [3]; imipenem): 675.9 μΜ
"O=C(O)c1ccccc1C(=O)N1CCN(c2nc(-c3ccccc3)ns2)CC1 [D2573, 2-{[4-(3-phenyl-1,2,4-thiadiazol-5-yl)piperazino]carbonyl}benzoic acid]",0.7042,> 75,nontoxic,82,"1,522 μΜ",1.5,499 μΜ,1.158,553,1.09,330.1,0.9055,1.454 S^−1,469.8 μΜ,0.9091 S^−1,0.1842,0.7621,1.1315,0.9674,0.750,

# Source: PMC9603770, “Broad-Spectrum Inhibitors against Class A, B, and C Type β-Lactamases to Block the Hydrolysis against Antibiotics: Kinetics and Structural Characterization” (Microbiology Spectrum, 2022)
